In US20190374650A1, “COMPOSITIONS AND METHODS FOR DELIVERY OF POLYMER/BIOMACROMOLECULE CONJUGATES” (THE REGENTS OF THE UNIVERSITY OF MICHIGAN, priority 2017, published 2019):
Where no end group is shown, it is not given here.

Assays:
[1] = tested on: BMDCs; experiment: BMDC activation: expression of co-stimulatory markers CD86 and CD40 by flow cytometry; assay type: cell-based, C57BL/6 mice; conditions: conjugate alone, w/o CpG; 1% modification, 2 nmol SIINFEKL/ml, 24 h
Description: (§1) Femur and tibia were harvested from C57BL/6 mice. Cells were collected by flushing bone marrow with a syringe, passing the cell suspension through a cell strainer (mesh size=40 μm), followed by centrifugation (200×g, 5 min). Cells were then seeded into non-tissue culture treated petri-dishes at a density of 2×10^6 cells/ml in DC culture media (RPMI 1640 supplemented with 10% FBS, 1% penicillin-streptomycin, 50 μM β-mercaptoethanol, and 20 ng/ml GM-CSF), cultured at 37° C. with 5% CO2. Culture media were refreshed on days 3, 6, and 8, and BMDCs were used on days 8-12.
(§2) BMDCs were seeded at a density of 8×10^5 cells/ml into 12-well plates. Cells were incubated with PGA120k-MAL-CSSSIINFEKL or PGA120k-SS-CSSSIINFEKL (1% modification of carboxyl groups, 2 nmol SIINFEKL/ml) w/or w/o 0.5 μg/ml CpG in 1 ml BMDC culture media for 24 h. Cells were harvested, blocked with anti-CD16/32 at room temperature for 10 min, and then stained with anti-CD11c-PECy7, anti-CD40-APC, anti-CD86-PE, or anti-SIINFEKL-H-2K^b-PE at room temperature for 30 min. Finally, cells were washed and resuspended in 2 μg/ml DAPI solution and analyzed by a flow cytometer (Cyan 5, Beckman Coulter).

[2] = tested on: OT-I T cells; experiment: Proliferation of antigen-specific CD8+ T cells in vitro (CFSE dilution); assay type: cell-based, OT-I mice; conditions: BMDCs pre-activated 24 h, 0.5 nmol SIINFEKL/ml, in the presence of 0.5 μg/ml CpG; co-culture 3 days
Description: SIINFEKL-specific CD8^+ T cells were isolated from OT-I mice using an EasySep™ Mouse CD8^+ T Cell Isolation Kit (STEMCELL Technologies, Cambridge, Mass.), and stained by CFSE. 5×10^4 BMDCs were seeded into 96-well plates, and incubated with PGA120k conjugates (1% modification of carboxyl groups, 0.5 nmol SIINFEKL/ml) w/or w/o 0.5 μg/ml CpG for 24 h. BMDCs were then washed by PBS, followed by co-culture with 5×10^4 CFSE-labeled OT-I T cells for 3 days. Cells were then harvested, blocked with anti-CD16/32, and stained with anti-CD8-APC on ice for 30 min. Cells were washed and resuspended in 2 μg/ml DAPI solution and analyzed for fluorescence dilutions of CFSE by flow cytometry.

[3] = tested on: neo-antigen-specific CD8+ T cells; experiment: Intratumoral injection into established MC38 tumors: tetramer staining of PBMCs; assay type: in vivo, C57BL/6 mice; conditions: MC38 tumor-bearing mice, day 7 after first injection
Description: (§3) C57BL/6 mice were subcutaneously injected with 5×10^5 MC38 colon carcinoma cells (a gift from W. Zou, University of Michigan) into the right flank and randomly sorted for treatment after 9 days when the tumor volumes reached approximately 50-70 mm^3. Fifty μl PBS solution of ASMTNMELM, CpG, ASMTNMELM+CpG, PEI-SS-CSSASMTNMELM+CpG (10 μg ASMTNMELM and 15 μg CpG), or blank PBS (50 μl) were directly injected into tumor every week for total three times. PBMCs were collected on day 7 after the first sample injection and tetramer staining was performed for flow cytometric analysis of neo-antigen-specific CD8+ T cells. The sizes of the tumors were measured every three days using a digital caliper, and the tumor volume was estimated by ellipsoidal calculation as V=(width)^2×length×π/6. The mice were euthanized when the tumors reached the maximum permitted size (1.5 cm in any dimension) or ulcerations occurred.

[4] = tested on: MC38 tumors; experiment: In vivo cancer immunotherapy against established MC38 tumors: tumor volume and survival; set-up: species or system C57BL/6 mice; conditions: three weekly intratumoral injections
Description: as §3

[5] = tested on: BMDCs; experiment: BMDC cytotoxicity (CCK-8 viability); assay type: cell-based; conditions: 24 h incubation, concentration as high as 100 μg/ml
Description: (§4) BMDCs were plated at a density of 1×10^5 cells/well in 96 well plates in RPMI 1640 supplemented with 10% FBS and 1% PS, and incubated overnight at 37° C. under 5% CO2. For cytotoxicity assessment, cells were incubated with either free form (CSSASMNTMELM) or PEI conjugate (PEI-SS-CSSASMTNMELM) of the neo-antigen peptide for 24 h at concentrations of 1, 5, 10, 20, 50, 100 μg/ml. The viability was measured by adding CCK-8 to each well of the plate according to manufacturer's instruction followed by absorbance measurement at 450 nm using a microplate reader after 2 h incubation. Relative viability was calculated as to the ratio of the absorbance to the non-sample treated cells (0 μg/ml). To investigate BMDC activation, cells were treated with PBS or PEI-SS-CSSASMTNMELM, PBS+CpG, PEI-SS-CSSASMTNMELM+CpG (2 μg/ml PEI-SS-CSSASMTNMELM and 1 μg/ml CpG) for 2 h. The fresh cell culture media were placed after sample washing and collected for cytokine analysis after further 24 h incubation. The concentration of IL-12p70 in the media was measured using ELISA kit by following the manufacturer's instruction.

[6] = tested on: BMDCs; experiment: BMDC activation: IL-12p70 secretion (ELISA); assay type: cell-based; conditions: alone, w/o CpG; 2 μg/ml, 2 h
Description: as §4

[7] = tested on: BMDCs; experiment: Antigen cross-presentation: presentation of SIINFEKL on DCs by flow cytometry; assay type: cell-based, C57BL/6 mice; conditions: 2 nmol SIINFEKL/ml, 24 h
Description: as §1, §2

In the case of “PGA-MAL-CSSSIINFEKL: 120 kD poly(L-glutamic acid) linked by non-sensitive maleimide-thiol bond to peptide CSSSIINFEKL, 1% modification of carboxyl groups (not fully specified; poly(L-glutamic acid) 120 kD maleimide-thiol conjugate)”, the “activation of DCs (expression of CD86 and CD40)” value [1] is reported as “failed to activate DCs”.

“SIINFEKL [soluble peptide, model antigen peptide]” was tested, and the “proliferation of OT-I T cells” value [2] was > 60%.

With ASMTNMELM [neo-antigen] the “neo-antigen-specific CD8+ T cell response” value [3] was “failed to elicit” and the “time by which all animals succumbed to tumors” value [4] was ≤ 50 days.

In the case of 5′-tccatgacgttcctgacgtt-3′ [CpG], the “neo-antigen-specific CD8+ T cell response” value [3] is reported as “failed to elicit”, the survival rates [4] is reported as ~20% and the tumor progression [4] is reported as “slowed tumor progression”.

For “PEI-SS-CSSASMTNMELM: PEI (MW 25,000), PEGylated, disulfide-linked via SPDP to neo-antigen peptide CSSASMTNMELM (PEGylated PEI disulfide-linked via SPDP)”, the BMDC viability [5] was “maintained their viability” and the “activation of BMDCs (secretion of IL-12p70)” value [6] was “failed to induce activation of BMDCs”.

“PGA-SS-CSSSIINFEKL: 120 kD poly(L-glutamic acid) linked by reduction-sensitive disulfide bond to peptide CSSSIINFEKL, 1% modification of carboxyl groups (not fully specified; poly(L-glutamic acid) 120 kD disulfide conjugate)” was tested, and the “CD40 expression in DCs” value [1] was “slightly increased CD40 expression”, the “presentation of SIINFEKL on DCs” value ([7]; w/o CpG, compared with soluble peptide and PGA-MAL-CSSSIINFEKL) was “significantly higher presentation of SIINFEKL on DCs” and the “presentation of SIINFEKL on DCs” value ([7]; with 0.5 μg/ml CpG) was “further increased by CpG”.

With “CSSASMTNMELM [free peptide, CSSASMTNMELM]” the BMDC viability [5] was “maintained their viability”.
